# Patent publication US20100261658A1, “PEPTIDE FOR ACTIVATING AQUAPORIN SYNTHESIS” (priority 2007, published 2010)
# Peptide text beside a SMILES is read from it.
# System: aquaporin 3
# Test: Expression of aquaporin 3 by immunofluorescence in samples of skin ex vivo
# Assay type: cell-based, human
# Settings: 1% solution of a mother solution at 50 ppm applied topically, 24 hours or 48 hours; in particular upper layers of the epidermis; vs non-treated control
# Protocol: The aim of this study is to determine the influence of the peptide SEQ ID no 5 on the expression of aquaporin 3 in samples of skin ex vivo.
# Protocol: Samples of human skin are cultured at the air/liquid interface. A 1% solution of a mother solution at 50 ppm of peptide SEQ ID no 4 is applied topically, then the samples are incubated for 24 hours or 48 hours.
# These skin samples are then fixed with formaldehyde then enclosed in paraffin. Sections of 2 to 3 μm are then realized. The immunolabeling is carried out after different stages of washing and incubation of these sections. The immunolabeling is carried out by means of a specific polyclonal antibody of aquaporin 3 (anti-aquaporin 3 (C-18): goat polyclonal, sc-9885, Santa Cruz, dilution 1/100th), then a secondary antibody, coupled to a fluorescent marker (alexa-fluor 488 donkey anti-goat Ig G, Molecular Probes, dilution 1/1000th). The skin sections are then examined by epifluorescence microscope (Nikon Eclipse E600 microscope).
compound,measurement,value
"C[C@H](NC(=O)[C@@H]1CCCN1C(=O)[C@@H](N)CC(N)=O)C(=O)N[C@@H](CCCNC(=N)N)C(=O)O [SEQ ID no 4, Asn-Pro-Ala-Arg] (H-NPAR-OH; N-terminus and C-terminus assumed)",aquaporin 3 immunofluorescence,stronger fluorescence
